Source: patent US6599541B1, “Composition for treatment of drug resistant bacterial infections and a method of treating drug resistant bacterial infections” (priority 1999, dated 2003)
In brackets after ≈: the same amount, converted by molar mass. Several values for one entry are separate records, joined by “and”; a condition that tells them apart may be missing. Equal values may be shown once.

Legend:
Staphylococcus aureus [1] = test: Broth Macro Dilution Test, MIC and MBC; format: cell-based; details: Example 12: strain from non-healing burn wound swab culture, antibiotic alone
Experimental: This was done by estimation of the Minimum Inhibitory Concentration (MIC) and Minimum Bactericidal Concentration (MBC) on the selected isolates by a Broth Macro Dilution Test.
Cation Supplemented Mueller Hinton Broth was used as medium for all organisms excepting for β haemolytic streptococci for which, Todd Hewit's Broth was used as medium.
The following concentrations of antibiotics were tested to determine MIC and MBC.
A minimum inhibitory concentration is the lowest level of antibiotic needed to cause an inhibition to bacterial growth in culture medium whereas, the minimum bactericidal concentration is the lowest concentration of antibiotic to achieve a 100% killing of bacteria. Thus, these two values are the practical indices of intensity of bacterial resistance to a given antibiotic. On the other hand, a break-even point of any antibiotic indicates the attainable blood levels after an administration of full dose, in human/animal body. Thus, this point indicates the practical dosage of administering any given antibiotic effectively and beyond this point, even if an antibiotic is found to act effectively in experimental situation—such dose cannot be administered in a clinical situation.

Staphylococcus aureus [2] = test: Broth tube test of NE with antibiotic at break point, percentage of killing; format: cell-based; details: Example 12 strain; antibiotic with NE, uniform for all the concentrations of NE
Experimental: Since all the study isolates are resistant to the concerned antibiotics, each antibiotic is taken at its breakpoint concentration, (the highest serum concentration of that particular antibiotic reached after the maximum therapeutic dose in-vivo). The break points for various antibiotics are as follows:
Preparation of Neem Extract: Stock solution of neem extract (1 mg/ml) was prepared, filtered and autoclaved. It was used in 4 concentrations—1000 μg/ml; 500 μg/ml; 250 μg/ml; 125 μg/ml.
A set of four tubes with variable concentrations of the extract is prepared and to each of these tubes, the break point concentration of antibiotics is added. Now, these sets are inoculated with the study isolate in the same manner as per the broth dilution procedure. A set of six controls is inoculated with each isolate—in parallel with the main experiment.
2. Only antibiotic solution
3. Medium and antibiotic solution with inoculum
5. Only Neem extract at 250 μg/ml
6. Medium with Neem Extract and inoculum
Reading the test All the tests and control tubes are observed for visible turbidity of growth first. Since all the study isolates were earlier confirmed to be resistant to the antibiotics, the bacterial growth is expected at the breakpoint concentration of the antibiotic. Any reduction in the turbidity as compared to the control tube no. 3 is noted as a possible additive or synergistic effect of the neem extract with the antibiotic. In absence of such effect, the tubes may show growth matching with the control no. 4.
In case of a positive result, further sub-culturing was taken up, on solid media for colony counts with a calibrated loop. The colony counts could be noted by a semi quantitative method as 101 to 10^5 CFU/ml (Colony forming units). This is finally expressed as the percentage of killing as compared to the colony count obtained with control no. 4. Usually control tubes no. 3, 4 and 6 had similar colony counts.

Staphylococcus aureus [3] = test: Agar Dilution Method of Sensitivity testing, NE alone and NE + antibiotic; format: cell-based; details: resistant S. aureus cultures, 48 hours
Experimental: (§1) Two kinds of investigations were carried-out using these bacterial isolates—using an Agar Dilution Method of Sensitivity testing.
(§2) i) To ascertain whether, NE can work as an antibacterial substance on its own. For this purpose, a stock-solution of NE was prepared and was sterilized as described in the preliminary experiments.
(§3) ii) This stock-solution was dispensed into the culture medium (Mueller Hinton Agar) so as to provide while; the medium was in liquid form. Four different concentrations of NE, viz.
(§4) iii) This medium was poured into petri dishes and allowed to solidify. Resistant cultures were inoculated on to these plates and after incubation for 48 hours, the growth patterns were assessed.
(§5) iv) The experiments were run in triplicate, for each concentration—as per standard practices of microbiological testing procedures.
(§6) i) The culture medium (Mueller Hinton Agar) was melted and distributed into a number of test tubes.
(§7) ii) The stock solution of NE was dispensed into these test tubes in four different concentrations viz.
(§8) iii) In the same medium, one of the antibiotics under investigation was also added so as to provide a variable concentration (at break-even point concentration) as described below:
(§9) iv) The culture medium containing NE extract+the antibiotic were poured into petri dishes and allowed to solidify.
(§10) v) The resistant bacterial strains were inoculated onto these plates, incubated for 48 hours and the growth patterns were studied on each plate.
These cultures were obtained various clinical samples, such as sputum, non-healing infected wounds, throat swabs etc.

Escherichia coli = test: as above; format: cell-based; details: 37 resistant E. coli strains, 48 hours
Experimental: as §1, §2, §3, §4, §5, §6, §7, §8, §9, §10

Klebsiella pneumoniae = test: as above; format: cell-based; details: 41 resistant K. pneumoniae strains, 48 hours
Experimental: as §1, §2, §3, §4, §5, §6, §7, §8, §9, §10
Under the same series of investigations, sensitization effect of NE was evaluated on resistant isolates of Klebsiella pneumoniae.

[4] = test system: respiratory/surgical infections by bacteria resistant to the antibiotic; test: Clinical study of NE tablets + antibiotic in non-responding infections, all cases; details: NE tablets 100 mg twice a day + that antibiotic, 1-3 weeks
Proteus mirabilis = test: Agar Dilution Method of Sensitivity testing, NE + antibiotic; format: cell-based; details: resistant Proteus mirabilis strains, 48 hours
Experimental: as §1, §6, §7, §8, §9, §10
The sensitization effect of NE was also examined on Proteus mirabilis strains resistant to Penicillin derivatives and quinolone derivative antibiotics.

Mixed Infections = test: Clinical study of NE tablets + antibiotic in non-responding infections
Staphylococcus aureus [5] = test: as above; details: NE tablets + antibiotic to which resistant
[6] = antibiotic at break-even point + NE 125 μg/mL
[7] = antibiotic at break-even point + NE 250 μg/mL
[8] = antibiotic at break-even point + NE 500 μg/mL
[9] = antibiotic at break-even point + NE 1000 μg/mL
[10] = Respiratory Infections, NE tablets + antibiotic to which resistant
[11] = all mixed infections resistant to the antibiotic, NE tablets + antibiotic

Compound: CC1(C)S[C@@H]2[C@H](NC(=O)[C@H](N)c3ccccc3)C(=O)N2[C@H]1C(=O)O [Ampicillin]
- MBC (Staphylococcus aureus [1]): > 128 µg/mL
- MIC (Staphylococcus aureus [1]): 64 µg/mL (≈ 183 µM)
- killing (Staphylococcus aureus [2]): 80% and 70%
- Growth Patterns after addition of NE: no. of cultures +++ (growth) (Staphylococcus aureus [3]; [6]): 34
- Growth Patterns after addition of NE: no. of cultures −−− (inhibition of growth) (Staphylococcus aureus [3]; [6]): 68
- Growth Patterns after addition of NE: no. of cultures +++ (growth) (Staphylococcus aureus [3]; [7]): 29
- Growth Patterns after addition of NE: no. of cultures −−− (inhibition of growth) (Staphylococcus aureus [3]; [7]): 73
- Growth Patterns after addition of NE: no. of cultures +++ (growth) (Staphylococcus aureus [3]; [8]): 26
- Growth Patterns after addition of NE: no. of cultures −−− (inhibition of growth) (Staphylococcus aureus [3]; [8]): 76
- Growth Patterns after addition of NE: no. of cultures +++ (growth) (Staphylococcus aureus [3]; [9]): 20
- Growth Patterns after addition of NE: no. of cultures −−− (inhibition of growth) (Staphylococcus aureus [3]; [9]): 82
- Growth Patterns after addition of NE: no. of cultures +++ (growth) (Escherichia coli; [6]): 31
- Growth Patterns after addition of NE: no. of cultures −−− (inhibition of growth) (Escherichia coli; [6]): 6
- Growth Patterns after addition of NE: no. of cultures +++ (growth) (Escherichia coli; [7]): 31
- Growth Patterns after addition of NE: no. of cultures −−− (inhibition of growth) (Escherichia coli; [7]): 6
- Growth Patterns after addition of NE: no. of cultures +++ (growth) (Escherichia coli; [8]): 31
- Growth Patterns after addition of NE: no. of cultures −−− (inhibition of growth) (Escherichia coli; [8]): 6
- Growth Patterns after addition of NE: no. of cultures +++ (growth) (Escherichia coli; [9]): 31
- Growth Patterns after addition of NE: no. of cultures −−− (inhibition of growth) (Escherichia coli; [9]): 6
- Growth Patterns after addition of NE: no. of cultures +++ (growth) (Klebsiella pneumoniae; [6]): 17
- Growth Patterns after addition of NE: no. of cultures −−− (inhibition of growth) (Klebsiella pneumoniae; [6]): 24
- Growth Patterns after addition of NE: no. of cultures +++ (growth) (Klebsiella pneumoniae; [7]): 17
- Growth Patterns after addition of NE: no. of cultures −−− (inhibition of growth) (Klebsiella pneumoniae; [7]): 24
- Growth Patterns after addition of NE: no. of cultures +++ (growth) (Klebsiella pneumoniae; [8]): 17
- Growth Patterns after addition of NE: no. of cultures −−− (inhibition of growth) (Klebsiella pneumoniae; [8]): 24
- Growth Patterns after addition of NE: no. of cultures +++ (growth) (Klebsiella pneumoniae; [9]): 17
- Growth Patterns after addition of NE: no. of cultures −−− (inhibition of growth) (Klebsiella pneumoniae; [9]): 24
- No. of cases with Grade-II response (complete clinical and bacteriological) [4]: 4
- Growth Patterns after addition of NE: no. of cultures +++ (growth) (Proteus mirabilis; [6]): 7
- Growth Patterns after addition of NE: no. of cultures −−− (inhibition of growth) (Proteus mirabilis; [6]): 3
- Growth Patterns after addition of NE: no. of cultures +++ (growth) (Proteus mirabilis; [7]): 7
- Growth Patterns after addition of NE: no. of cultures −−− (inhibition of growth) (Proteus mirabilis; [7]): 3
- Growth Patterns after addition of NE: no. of cultures +++ (growth) (Proteus mirabilis; [8]): 7
- Growth Patterns after addition of NE: no. of cultures −−− (inhibition of growth) (Proteus mirabilis; [8]): 3
- Growth Patterns after addition of NE: no. of cultures +++ (growth) (Proteus mirabilis; [9]): 7
- Growth Patterns after addition of NE: no. of cultures −−− (inhibition of growth) (Proteus mirabilis; [9]): 3
- No. of Cases Gr.-I (Mixed Infections; [10]): 1
- No. of Cases Gr.-II (Mixed Infections; [10]): 1
- No. of Cases Gr.-II (Mixed Infections; Surgical Infections, NE tablets + antibiotic to which resistant): 1
- No. of cases with effective sensitization / complete response (Mixed Infections; [11]): 2
- No. of cases with partial response (Mixed Infections; [11]): one

Compound: CC[C@H]1OC(=O)[C@H](C)[C@@H](O[C@H]2C[C@@](C)(OC)[C@@H](O)[C@H](C)O2)[C@H](C)[C@@H](O[C@@H]2O[C@H](C)C[C@H](N(C)C)[C@H]2O)[C@](C)(O)C[C@@H](C)/C(=N\OCOCCOC)[C@H](C)[C@@H](O)[C@]1(C)O [Roxythromycin]
- No. of cases with Grade-II response (complete clinical and bacteriological) [4]: 2
- No. of Cases Gr.-I (Staphylococcus aureus [5]; Respiratory Infections): 1
- No. of Cases Gr-0 (Staphylococcus aureus [5]; Surgical Infections): 1
- No. of Cases Gr.-II (Staphylococcus aureus [5]; Surgical Infections): 2
